Where only a bound is given, the exact number is not on record here.

In this test the test system is T1, LXR.
T1 construct: fused on or other part: GST fused to the LBD in the FRET assay
The test can be described thus: Measured EC50 or IC50 for LXR (LXRα and/or LXRβ; assay and subtype not given). The settings on record: IC50 or EC50 class, subtype not specified. The method, then:
Measured EC50 or IC50 for LXR, and FXR for Compounds of the Invention
LXR and FXR activities for various compounds of the invention are presented in the following table; those compounds with EC50 or IC50 values <10 μM for at least one of LXRα, LXRβ or FXR are considered to be active. In the following Table, IC50 or EC50 data is represented as follows: A<1 μM, B=1-10 μm, and C>10 μM.
In turn, `O=C(OCc1ccccc1)c1ccc(OCc2cc(C(F)(F)F)nn2-c2ccccc2Cl)cc1` [Example 7, phenylmethyl 4-({[1-(2-chlorophenyl)-3-(trifluoromethyl)-1H-pyrazol-5-yl]methyl}oxy)benzoate] had an EC50 above 10 µM.
`FC(F)(F)c1cc(COc2ccc(-n3cccc3)cc2)n(-c2ccccc2Cl)n1` [Example 8, 1-(2-chlorophenyl)-5-({[4-(1H-pyrrol-1-yl)phenyl]oxy}methyl)-3-(trifluoromethyl)-1H-pyrazole] displayed an EC50 below 1 µM.
Regarding `O=C(O)c1cc2cc(OCc3cc(C(F)(F)F)nn3-c3ccccc3Cl)ccc2[nH]1` [Example 9, 5-({[1-(2-chlorophenyl)-3-(trifluoromethyl)-1H-pyrazol-5-yl]methyl}oxy)-1H-indole-2-carboxylic acid], the EC50 is above 10 µM.
For `CCOC(=O)c1cc2cc(OCc3cc(C(F)(F)F)nn3-c3ccccc3Cl)ccc2[nH]1` [Example 38, ethyl 5-({[1-(2-chlorophenyl)-3-(trifluoromethyl)-1H-pyrazol-5-yl]methyl}oxy)-1H-indole-2-carboxylate], the half-maximal effective concentration (EC50) was above 10 µM.
Take `CC(C)(C(=O)O)c1cccc(-c2ccc(OCc3cc(C(F)(F)F)nn3-c3ccccc3Cl)cc2)c1` [Example 92, 2-[4′-({[1-(2-chlorophenyl)-3-(trifluoromethyl)-1H-pyrazol-5-yl]methyl}oxy)biphenyl-3-yl]-2-methylpropanoic acid]: the EC50 is 1 to 10 µM.
Consider `O=C(O)Cc1cccc(-c2ccc(OCc3cc(C(F)(F)F)nn3-c3ccccc3Cl)cc2)c1` [Example 93, [4′-({[1-(2-chlorophenyl)-3-(trifluoromethyl)-1H-pyrazol-5-yl]methyl}oxy)biphenyl-3-yl]acetic acid], for which the 50% effective concentration (EC50) was above 10 µM.
For `O=C(Oc1cccc(OCc2cc(C(F)(F)F)nn2-c2ccccc2Cl)c1)c1ccccc1` [Example 95, 3-({[1-(2-chlorophenyl)-3-(trifluoromethyl)-1H-pyrazol-5-yl]methyl}oxy)phenyl benzoate] the value was above 10 µM.
In turn, `O=C(O)Cc1ccc(-c2ccc(OCc3cc(C(F)(F)F)nn3-c3ccccc3Cl)cc2)cc1` [Example 98, [4′-({[1-(2-chlorophenyl)-3-(trifluoromethyl)-1H-pyrazol-5-yl]methyl}oxy)biphenyl-4-yl]acetic acid] registered an EC50 above 10 µM.
Under `CS(=O)(=O)c1cccc(NC(=O)c2cc(C(F)(F)F)nn2-c2cc(Cl)ccc2Cl)c1` [Example 99, 1-(2,5-dichlorophenyl)-N-[3-(methylsulfonyl)phenyl]-3-(trifluoromethyl)-1H-pyrazole-5-carboxamide] stands above 10 µM; under `O=C(NCc1cccc(C(F)(F)F)c1)c1cc(C(F)(F)F)nn1-c1cc(Cl)ccc1Cl` [Example 100, 1-(2,5-dichlorophenyl)-3-(trifluoromethyl)-N-{[3-(trifluoromethyl)phenyl]methyl}-1H-pyrazole-5-carboxamide], above 10 µM.
`CS(=O)(=O)c1ccc(CNC(=O)c2cc(C(F)(F)F)nn2-c2cc(Cl)ccc2Cl)cc1` [Example 101, 1-(2,5-dichlorophenyl)-N-{[4-(methylsulfonyl)phenyl]methyl}-3-(trifluoromethyl)-1H-pyrazole-5-carboxamide]: the EC50 was above 10 µM.
`O=C(NCc1cccc(Cl)c1)c1cc(C(F)(F)F)nn1-c1cc(Cl)ccc1Cl` [Example 102, N-[(3-chlorophenyl)methyl]-1-(2,5-dichlorophenyl)-3-(trifluoromethyl)-1H-pyrazole-5-carboxamide] registered an EC50 above 10 µM.
`CS(=O)(=O)c1cccc(CNC(=O)c2cc(C(F)(F)F)nn2-c2ccccc2Cl)c1` [Example 103, 1-(2-chlorophenyl)-N-{[3-(methylsulfonyl)phenyl]methyl}-3-(trifluoromethyl)-1H-pyrazole-5-carboxamide] came in with an EC50 above 10 µM.
Regarding `CC(C)Oc1ccccc1-n1nc(C(F)(F)F)cc1C(=O)NCc1cccc(C(F)(F)F)c1` [Example 104, 1-{2-[(1-methylethyl)oxy]phenyl}-3-(trifluoromethyl)-N-{[3-(trifluoromethyl)phenyl]methyl}-1H-pyrazole-5-carboxamide], the EC50 was above 10 µM.
Consider `CC(=O)c1cccc(NC(=O)Nc2cc(C(F)(F)F)nn2-c2ccccc2C(F)(F)F)c1` [Example 105, N-(3-acetylphenyl)-N′-{3-(trifluoromethyl)-1-[2-(trifluoromethyl)phenyl]-1H-pyrazol-5-yl}urea], for which the EC50 is above 10 µM.
`O=C(NCc1cccc(C(F)(F)F)c1)c1cc(C(F)(F)F)nn1-c1ccccc1Cl` [Example 106, 1-(2-chlorophenyl)-3-(trifluoromethyl)-N-{[3-(trifluoromethyl)phenyl]methyl}-1H-pyrazole-5-carboxamide] yielded an EC50 above 10 µM.
Compound `NS(=O)(=O)c1cccc(C#Cc2cc(C(F)(F)F)nn2-c2ccccc2Cl)c1` [Example 107, 3-{[1-(2-chlorophenyl)-3-(trifluoromethyl)-1H-pyrazol-5-yl]ethynyl}benzenesulfonamide] gave an EC50 of 1 to 10 µM.
`CS(=O)(=O)c1cccc(C#Cc2cc(C(F)(F)F)nn2-c2ccccc2Cl)c1` [Example 108, 1-(2-chlorophenyl)-5-{[3-(methylsulfonyl)phenyl]ethynyl}-3-(trifluoromethyl)-1H-pyrazole] registered an EC50 below 1 µM.
Under `CS(=O)(=O)c1ccc(C#Cc2cc(C(F)(F)F)nn2-c2ccccc2Cl)cc1` [Example 109, 1-(2-chlorophenyl)-5-{[4-(methylsulfonyl)phenyl]ethynyl}-3-(trifluoromethyl)-1H-pyrazole] stands below 1 µM; under `CS(=O)(=O)Cc1ccc(C#Cc2cc(C(F)(F)F)nn2-c2ccccc2Cl)cc1` [Example 110, 1-(2-chlorophenyl)-5-({4-[(methylsulfonyl)methyl]phenyl}ethynyl)-3-(trifluoromethyl)-1H-pyrazole], 1 to 10 µM.
Take `FC(F)(F)c1cc(COc2ccc(-c3ccccc3)cc2)n(-c2ccccc2Cl)n1` [Example 111, 5-[(biphenyl-4-yloxy)methyl]-1-(2-chlorophenyl)-3-(trifluoromethyl)-1H-pyrazole]: the EC50 fell in the range of 1 to 10 µM.
For the compound `CS(=O)(=O)c1cccc(-c2ccc(OCc3nc(C(F)(F)F)cn3-c3c(Cl)cccc3Cl)cc2)c1` [Example 114, 1-(2,6-dichlorophenyl)-2-({[3′-(methylsulfonyl)biphenyl-4-yl]oxy}methyl)-4-(trifluoromethyl)-1H-imidazole], the half-maximal effective concentration (EC50) is below 1 µM.
With `CS(=O)(=O)c1cccc(-c2ccc(COc3cc(C(F)(F)F)nn3-c3c(Cl)cccc3Cl)cc2)c1` [Example 116, 1-(2,6-dichlorophenyl)-5-({[3′-(methylsulfonyl)biphenyl-4-yl]methyl}oxy)-3-(trifluoromethyl)-1H-pyrazole], the EC50 is below 1 µM.
In turn, `CS(=O)(=O)c1cccc(-c2ccc(COc3cc(C(F)(F)F)nn3-c3c(Cl)cccc3Cl)c(F)c2)c1` [Example 117, 1-(2,6-dichlorophenyl)-5-({[3-fluoro-3′-(methylsulfonyl)biphenyl-4-yl]methyl}oxy)-3-(trifluoromethyl)-1H-pyrazole] yielded an EC50 below 1 µM.
`CS(=O)(=O)c1cccc(NC(=O)c2cc(C(F)(F)F)nn2-c2ccccc2Cl)c1` [Example 611, 1-(2-chlorophenyl)-N-[3-(methylsulfonyl)phenyl]-3-(trifluoromethyl)-1H-pyrazole-5-carboxamide] had an EC50 above 10 µM.

The record behind these values is patent publication US7998995B2 (Exelixis Patent Company LLC, priority 2006, dated 2011).
